Reference: US4272437A, “Antibacterial agents, and 4-thio azetidinone intermediates” (priority 1979, dated 1981)
Values after ≈ are worked out from the molar mass of the structure shown. Read-outs that look alike come from different tables or passages of the source.

Experiments:
Str. pneumoniae A-9585 = experiment: MIC, tube dilution, Streptococcus pneumoniae A9585; format: cell-based; conditions: Streptococcus pneumoniae, A9585, Str. pneumoniae A9585; overnight 37° C., Nutrient Broth; read-out: Minimum Inhibitory Concentration (M.I.C.)
Excerpt: (§1) Representative compounds of the present invention were subjected to in vitro antibiotic screening against a variety of microorganisms.

Str. pyogenes A-9604 = experiment: MIC, tube dilution, Streptococcus pyogenes A9604; format: cell-based; conditions: Streptococcus pyogenes, A9604, Str. pyogenes A9604; overnight 37° C., Nutrient Broth; read-out: Minimum Inhibitory Concentration (M.I.C.)
Excerpt: as §1

Staph. aureus A-9537 = experiment: MIC, tube dilution, Staphylococcus aureus A9537; format: cell-based; conditions: Staphylococcus aureus, A9537, Staph. aureus A9537; overnight 37° C., Nutrient Broth; read-out: Minimum Inhibitory Concentration (M.I.C.)
Excerpt: as §1

[1] = system: Staph. aureus A-9537 and 50% serum; experiment: MIC, tube dilution, Staph. aureus A9537 + 50% serum; format: cell-based, Staphylococcus aureus; conditions: Staphylococcus aureus, overnight 37° C., read-out: Minimum Inhibitory Concentration (M.I.C.)
Excerpt: as §1

[2] = system: Staph. aureus (Pen-Res) A-9606; experiment: MIC, tube dilution, Staphylococcus aureus A9606 (Pen-Res); format: cell-based; conditions: Staphylococcus aureus, Staph. aureus A9606 (Pen-Res); overnight 37° C.; read-out: Minimum Inhibitory Concentration (M.I.C.)
Excerpt: as §1

[3] = system: Staph. aureus (Meth-Res) A-15097; experiment: MIC, tube dilution, Staphylococcus aureus A15097 (Meth-Res); format: cell-based; conditions: Staph. aureus A15097 (Meth-Res), overnight 37° C.
Excerpt: as §1

Str. faecalis A-20688 = experiment: MIC, tube dilution, Streptococcus faecalis A20688; format: cell-based; conditions: overnight 37° C.
Excerpt: as §1

E. coli A-15119 = experiment: MIC, tube dilution, Escherichia coli A15119; format: cell-based; conditions: Escherichia coli, A15119, E. coli A15119; overnight 37° C.; read-out: Minimum Inhibitory Concentration (M.I.C.)
Excerpt: as §1

E. coli A-20341-1 = experiment: MIC, tube dilution, Escherichia coli A20341-1; format: cell-based
Excerpt: as §1

K. pneumoniae A-15130 = experiment: MIC, tube dilution, Klebsiella pneumoniae A15130; format: cell-based; conditions: Klebsiella pneumoniae, A15130, K. pneumoniae A15130; overnight 37° C.; read-out: Minimum Inhibitory Concentration (M.I.C.)
Excerpt: as §1

[4] = system: Klebsiella species A20468; experiment: MIC, tube dilution, Klebsiella species A20468; format: cell-based; conditions: Klebsiella species (K. pneumoniae) A20468; overnight 37° C.; read-out: Minimum Inhibitory Concentration (M.I.C.)
Excerpt: as §1

Pr. mirabilis A-9900 = experiment: MIC, tube dilution, Proteus mirabilis A9900; format: cell-based; conditions: Proteus mirabilis, A9900, Proteus mirabilis A9900; overnight 37° C.; read-out: Minimum Inhibitory Concentration (M.I.C.)
Excerpt: as §1

Pr. vulgaris A-9716 = experiment: MIC, tube dilution, Proteus vulgaris / Proteus mirabilis A9716; format: cell-based, Proteus vulgaris (name changed to Proteus mirabilis); conditions: Proteus vulgaris, A9716, Proteus vulgaris / Proteus mirabilis A9716; overnight 37° C.; read-out: Minimum Inhibitory Concentration (M.I.C.)
Excerpt: as §1

Pr. morganii A-15153 = experiment: MIC, tube dilution, Proteus morganii A15153; format: cell-based; conditions: Morganella morganii, A15153, Proteus morganii A15153; overnight 37° C.; read-out: Minimum Inhibitory Concentration (M.I.C.)
Excerpt: as §1

Ser. marcescens A-20019 = experiment: MIC, tube dilution, Serratia marcescens A20019; format: cell-based; conditions: Serratia marcescens, A20019, Serratia marcescens A20019; overnight 37° C.; read-out: Minimum Inhibitory Concentration (M.I.C.)
Excerpt: as §1

Ent. cloacae A-9659 = experiment: MIC, tube dilution, Enterobacter cloacae A9659; format: cell-based; conditions: Enterobacter cloacae, A9659, Enterobacter cloacae A9659; overnight 37° C.; read-out: Minimum Inhibitory Concentration (M.I.C.)
Excerpt: as §1

Ent. cloacae A-9656 = experiment: MIC, tube dilution, Enterobacter cloacae A9656; format: cell-based; conditions: Enterobacter cloacae, A9656, Enterobacter cloacae A9656; overnight 37° C.; read-out: Minimum Inhibitory Concentration (M.I.C.)
Excerpt: as §1

Ps. aeruginosa A-9843A = experiment: MIC, tube dilution, Pseudomonas aeruginosa A9843A; format: cell-based; conditions: Pseudomonas aeruginosa, A9843A, read-out: Minimum Inhibitory Concentration (M.I.C.), Pseudomonas aeruginosa A9843A; overnight 37° C.
Excerpt: as §1

Ps. aeruginosa A-21213 = experiment: MIC, tube dilution, Pseudomonas aeruginosa A21213; format: cell-based; conditions: overnight 37° C., read-out: Minimum Inhibitory Concentration (M.I.C.)
Excerpt: as §1

Proteus rettgeri A21203 = experiment: MIC, tube dilution, Proteus rettgeri A21203; format: cell-based; conditions: Providencia rettgeri, A21203, Proteus rettgeri A21203; overnight 37° C.; read-out: Minimum Inhibitory Concentration (M.I.C.)
Excerpt: as §1

S. aureus A9537 = experiment: In vivo protection of mice, lethal infection with S. aureus A9537; conditions: Staphylococcus aureus, A9537, im, IM, 2 treatments, read-out: PD50
Procedure: Representative compounds of the present invention were also tested in vivo in mice and their PD50 (dose of compound in mg/kg required to protect 50% of the treated mice against an otherwise lethal infection of a micro-organism) values determined with respect to the test organisms shown below.

[5] = Mouse blood levels after intramuscular administration; format: in vivo; conditions: average of 6 mice, read-out: Mouse blood level; for concentration at 10 min: 10 minutes after IM 40 mg/kg; for concentration at 20 min: 20 minutes after IM 40 mg/kg; for concentration at 0.5 h: 30 minutes after IM 40 mg/kg; for concentration at 0.75 h: 45 minutes after IM 40 mg/kg; for concentration at 1 h: 60 minutes after IM 40 mg/kg; for concentration at 1.5 h: 90 minutes after IM 40 mg/kg; for concentration at 2 h: 120 minutes after IM 40 mg/kg
Procedure: Mouse blood levels after intramuscular administration of representative compounds of the present invention were determined and are reported in the table below.

Proteus vulgaris A21559 = experiment: MIC, tube dilution, Proteus vulgaris A21559; format: cell-based; conditions: Proteus vulgaris, A21559, Proteus vulgaris A21559; overnight 37° C.; read-out: Minimum Inhibitory Concentration (M.I.C.)
Excerpt: as §1

Compound | MIC (Str. pneumoniae A-9585) [µg/mL] | MIC (Str. pyogenes A-9604) [µg/mL] | MIC (Staph. aureus A-9537) [µg/mL] | MIC [1] [µg/mL] | MIC [2] [µg/mL] | MIC (E. coli A-15119) [µg/mL] | MIC (K. pneumoniae A-15130) [µg/mL] | MIC [4] [µg/mL] | MIC (Pr. mirabilis A-9900) [µg/mL] | MIC (Pr. morganii A-15153) [µg/mL] | MIC (Ser. marcescens A-20019) [µg/mL] | MIC (Ent. cloacae A-9659) [µg/mL] | MIC (Ent. cloacae A-9656) [µg/mL] | MIC (Ps. aeruginosa A-9843A) [µg/mL] | MIC (Proteus rettgeri A21203) [µg/mL] | concentration at 10 min [5] [ng/mL] | concentration at 20 min [5] [ng/mL] | concentration at 0.5 h [5] [ng/mL] | concentration at 0.75 h [5] [ng/mL] | concentration at 1 h [5] [ng/mL] | also measured
NCCCC1=C(C(=O)O)N2C(=O)CC2S1 (centres unmarked) [Example 22, Sodium 2-Aminopropylpenem-3-carboxylate] | 0.25 | 2 | 2 | 63 | 63 | 16 | 32 | > 125 | 16 | 32 | 32 | 16 | 32 | 125 | 16 | 36500 | 39900 | 31500 | 16500 | 11500 | Minimum Inhibitory Concentration (M.I.C.) [3]: 125 µg/mL; Minimum Inhibitory Concentration (M.I.C.) (Str. faecalis A-20688; Str. faecalis A20688): 125 µg/mL; MIC (E. coli A-20341-1; Escherichia coli, A203411; E. coli A20341-1; overnight 37° C.; read-out: Minimum Inhibitory Concentration (M.I.C.)): 125 µg/mL; MIC (Pr. vulgaris A-9716): 16 µg/mL; MIC (Ps. aeruginosa A-21213; Pseudomonas aeruginosa A21213): 125 µg/mL; ED50 (S. aureus A9537; 1.1 × 10^6 organisms): 0.63 mg/kg; concentration at 1.5 h [5]: 5700 ng/mL; concentration at 2 h [5]: 3100 ng/mL
NCCOCC1=C(C(=O)O)N2C(=O)CC2S1 (centres unmarked) [Example 86, 2-(2-Aminoethoxymethyl)penem-3-carboxylic Acid] | 0.13 (≈ 0.532 µM) | 0.13 (≈ 0.532 µM) | 0.13 (≈ 0.532 µM) | 1 | 32 (≈ 131 µM) | 2 (≈ 8.19 µM) | 4 (≈ 16.4 µM) | > 125 | 2 (≈ 8.19 µM) | 8 (≈ 32.8 µM) | 2 (≈ 8.19 µM) | 8 (≈ 32.8 µM) | 4 (≈ 16.4 µM) | 63 (≈ 258 µM) | 2 (≈ 8.19 µM) | 36000 | 26300 | 16500 | 7500 | 4000 | MIC ([3]; Staphylococcus aureus, read-out: Minimum Inhibitory Concentration (M.I.C.)): 125 µg/mL (≈ 512 µM); MIC (Str. faecalis A-20688; Enterococcus faecalis, A20688, Str. faecalis A20688, read-out: Minimum Inhibitory Concentration (M.I.C.)): 32 µg/mL (≈ 131 µM); MIC (E. coli A-20341-1; Escherichia coli, A203411, E. coli A20341-1; overnight 37° C.; read-out: Minimum Inhibitory Concentration (M.I.C.)): 8 µg/mL (≈ 32.8 µM); MIC (Ps. aeruginosa A-21213; Pseudomonas aeruginosa, A21213, Pseudomonas aeruginosa A21213): 125 µg/mL (≈ 512 µM); MIC (Proteus vulgaris A21559): 8 µg/mL (≈ 32.8 µM); ED50 (S. aureus A9537; 1 × 10^6 organisms): 1.9 mg/kg; concentration at 1.5 h [5]: < 3100 ng/mL; concentration at 2 h [5]: < 3100 ng/mL
